Measurements taken from the C3SDB collision cross section collection.

Legend:
[1] = instrument: DT, single field, calibrated with Agilent tune mix (Agilent)
[2] = instrument: DT, stepped-field

| SMILES | collision cross section (N2) ([2]; [M+Na]+) [Å²] | collision cross section (N2) ([2]; [M+H]+) [Å²] | other results |
| --- | --- | --- | --- |
| O=c1[nH]cc(CO)c(=O)[nH]1 [5-Hydroxymethyluracil] | 142.06 |  | collision cross section (N2) ([1]; [M-H]-): 119.21 Å² |
| Cc1cn([C@@H]2O[C@H](CO)[C@@H](O)[C@H]2O)c(=O)nc1N [5-Methylcytidine] | 168.97 | 157.51 | collision cross section (N2) ([1]; [M+H]+): 157.4 Å²; collision cross section (N2) ([1]; [M-H]-): 152.63 Å² |
| CN1c2c([nH]c(N)nc2=O)NCC1CNc1ccc(C(=O)N[C@H](CCC(=O)O)C(=O)O)cc1 (stereo partly specified) [5-Methyltetrahydrofolate] | 200.04 | 196.99 | collision cross section (N2) ([1]; [M+H]+): 196.4 Å²; collision cross section (N2) ([1]; [M+Na-2H]-): 201.03 Å² |
| NCCCCN=C(N)N [Agmatine] |  | 129.96 | collision cross section (N2) ([1]; [M+H]+): 128.2 Å² |
| C[C@]12CCC(=O)C=C1CC[C@@H]1[C@@H]2[C@@H](O)C[C@]2(C=O)[C@@H](C(=O)CO)CC[C@@H]12 [Aldosterone] | 204.09 | 196.05 | collision cross section (N2) ([1]; [M+H]+): 187.7 Å²; collision cross section (N2) ([1]; [M-H]-): 181.09 Å² |
| C[N+](C)(C)CC(=O)[O-] [Betaine] | 135.56 | 121.6 | collision cross section (N2) ([1]; [M+H]+): 121.4 Å² |
| C=CC1=C(C)C(/C=c2\[nH]/c(=C\c3[nH]c(/C=C4\NC(=O)C(C)=C4C=C)c(C)c3CCC(=O)O)c(CCC(=O)O)c2C)=NC1=O [Biliverdin] | 248.83 | 246.5 | collision cross section (N2) ([1]; [M+Na]+): 246.7 Å²; collision cross section (N2) ([1]; [M-H]-): 242.04 Å² |
| O=C(O)CCCC[C@@H]1SC[C@@H]2NC(=O)N[C@@H]21 [D-Biotin] | 164.45 | 154.16 | collision cross section (N2) ([1]; [M+H]+): 150.4 Å²; collision cross section (N2) ([1]; [M-H]-): 152.96 Å² |
| CCCCCCCCCCCCC(=O)OCC(O)COP(=O)([O-])OCC[N+](C)(C)C (stereo unspecified) [LPC 13:0] | 225.41 | 220.71 |  |
| CCCCCCCCCCCCCC(=O)OC[C@@H](O)COP(=O)([O-])OCC[N+](C)(C)C [LPC 14:0] | 225.77 | 222 |  |
| CCCCCCCCCCCCCCCCCCC(=O)OCC(O)COP(=O)([O-])OCC[N+](C)(C)C (stereo unspecified) [LPC 19:0] | 244.1 |  |  |
| CCCCCCCCCCCCCCCCCCCCCCCC(=O)OC[C@@H](O)COP(=O)([O-])OCC[N+](C)(C)C [LPC(24:0)] | 262.43 |  |  |
| CC(=O)N[C@H]1[C@H](O[C@H]2[C@@H](O)[C@@H](CO)O[C@@H](O[C@H]3[C@H](O)[C@@H](O)C(O)O[C@@H]3CO)[C@@H]2O)O[C@H](CO)[C@@H](O)[C@@H]1O[C@@H]1O[C@H](CO)[C@H](O)[C@H](O)[C@H]1O (stereo partly specified) [Lacto-N-Tetraose] | 239.18 |  |  |
| CC(=O)NC1[C@H](OC2[C@@H](O)[C@H](OC([C@H](O)CO)[C@@H](O)[C@@H](O)C=O)O[C@H](COC3O[C@H](CO)[C@@H](O[C@@H]4O[C@H](CO)[C@H](O)[C@H](O)[C@H]4O)[C@H](O)[C@H]3NC(C)=O)[C@H]2O)O[C@H](CO)[C@@H](O)[C@@H]1OC1O[C@H](CO)[C@H](O)[C@H](O)[C@H]1O (stereo partly specified) [Lacto-N-hexaose] | 301.6 |  |  |
| CCCCC/C=C\C\C=C/C=C/C=C/[C@@H](SC[C@H](N)C(=O)NCC(=O)O)[C@@H](O)CCCC(=O)O [Leukotriene D4] | 238.7 | 234.1 |  |
| CCCCC/C=C\C\C=C/C=C/C=C/[C@@H](SC[C@H](N)C(=O)O)[C@@H](O)CCCC(=O)O [Leukotriene E4] | 227.9 | 213.2 |  |
| CCCCCCCCCCCCCCCCCCCCCCCC(=O)O [Lignoceric Acid] | 216.86 |  |  |
| C=CC(C)(O)CCC=C(C)C (stereo unspecified) [Linalool] | 140.55 |  |  |
| COC(=O)C1=CO[C@@H](O[C@@H]2O[C@H](CO)[C@@H](O)[C@H](O)[C@H]2O)[C@@H]2[C@@H](C)[C@@H](O)C[C@H]12 [Loganin] | 195.65 |  |  |
| OC[C@H]1O[C@H](O[C@H]2[C@H](O)[C@@H](O)[C@@H](O[C@H]3[C@H](O)[C@@H](O)[C@@H](O[C@H]4[C@H](O)[C@@H](O)[C@@H](O[C@H]5[C@H](O)[C@@H](O)[C@@H](O[C@H]6[C@H](O)[C@@H](O)C(O)O[C@@H]6CO)O[C@@H]5CO)O[C@@H]4CO)O[C@@H]3CO)O[C@@H]2CO)[C@H](O)[C@@H](O)[C@@H]1O (stereo partly specified) [Maltohexaose] | 279.7 |  |  |
| OC[C@H]1O[C@H](O[C@H]2[C@H](O)[C@@H](O)[C@@H](O[C@H]3[C@H](O)[C@@H](O)[C@@H](O[C@H]4[C@H](O)[C@@H](O)[C@@H](O)O[C@@H]4CO)O[C@@H]3CO)O[C@@H]2CO)[C@H](O)[C@@H](O)[C@@H]1O [Maltotetraose] | 230.47 |  |  |
| OC[C@H]1O[C@@H](O[C@H]2[C@H](O)[C@H](O)[C@H](O[C@H]3[C@H](O)[C@H](O)[C@H](O[C@H]4[C@H](O)[C@H](O)[C@H](O[C@H]5[C@H](O)[C@H](O)[C@H](O[C@H]6[C@H](O)[C@H](O)C(O)O[C@@H]6CO)O[C@@H]5CO)O[C@@H]4CO)O[C@@H]3CO)O[C@@H]2CO)[C@@H](O)[C@@H](O)[C@@H]1O (stereo partly specified) [Mannohexaose] | 281.7 |  |  |
| CCCCC/C=C\C/C=C\CCCCCCCC(=O)OC [Methyl Linoleate] |  | 187.2 |  |
| C[C@@](O)(CCO)CC(=O)O [Mevalonic Acid] | 137.7 |  |  |
| CC1(O)CCOC(=O)C1 (stereo unspecified) [Mevalonolactone] | 143.67 |  |  |
| C=CCc1cc(OC)c2c(c1)OCO2 [Myristicin] |  | 141.69 |  |

| SMILES | collision cross section (N2) ([2]; [M+Na]+) [Å²] | collision cross section (N2) ([2]; [M+H]+) [Å²] | other results |
| --- | --- | --- | --- |
| CC(=O)Nc1ccc(S(=O)(=O)Nc2cc(C)on2)cc1 [N-Acetyl Sulfamethoxazole] | 178.52 | 171.45 |  |
| CN[C@@H](CCC(=O)O)C(=O)O [N-Methyl-L-glutamate] |  | 133.71 |  |
| c1ccc2ccccc2c1 [Naphthalene] |  | 120.28 |  |
| NC(=O)c1ccc[n+]([C@@H]2O[C@H](COP(=O)(O)OP(=O)(O)OC[C@H]3O[C@@H](n4cnc5c(N)ncnc54)[C@H](O)[C@@H]3O)[C@@H](O)[C@H]2O)c1 [Nicotinamide Adenine Dinucleotide (NAD+)] |  | 241.93 |  |
| CCCCCCCC/C=C\CCCCCCCC(=O)OC(CC(=O)[O-])C[N+](C)(C)C (stereo unspecified) [Oleoylcarnitine] | 228.6 | 218.73 |  |
| O=C(O)CC(=O)C(=O)O [Oxaloacetic Acid] |  | 139.45 |  |
| CCCCCCCCCCCCCCCC(=O)O[C@H](COC(=O)CCCCCCCCCCC)COP(=O)(O)OC[C@H](N)C(=O)O [PS(14:0/14:0)] | 247.83 |  |  |
| CCCCCCCCCCCCCCCC(=O)OC(CC(=O)[O-])C[N+](C)(C)C (stereo unspecified) [Palmitoylcarnitine] | 230.37 | 216.1 |  |
| Cn1c(=O)[nH]c2ncn(C)c2c1=O [Paraxanthine] |  | 135.63 |  |
| CCC(CC)Nc1c([N+](=O)[O-])cc(C)c(C)c1[N+](=O)[O-] [Pendimethalin] | 187.77 | 162.6 |  |
| Nc1c(Cl)c(Cl)nc(C(=O)O)c1Cl [Picloram] | 156.37 | 142.83 |  |
| c1cn[nH]c1 [Pyrazole] |  | 125.47 |  |
| Cc1ncc(COP(=O)(O)O)c(C=O)c1O [Pyridoxal 5'-Phosphate] | 165.05 | 154.76 |  |
| O=P(O)(O)OP(=O)(O)O [Pyrophosphoric Acid] | 145.58 |  |  |
| O=C(O)C1(O)C[C@@H](O)C(O)[C@H](O)C1 (stereo partly specified) [Quinic Acid] | 153.72 | 146.35 |  |
| CC/C=C\C[C@H](O)[C@H](O)/C=C/C=C/C=C\C=C\[C@@H](O)C/C=C\CCC(=O)O [Resolvin D2] | 200.6 |  |  |
| CCCCCCCCCCCCC=CC[C@@H](O)[C@H](COP(=O)([O-])OCC[N+](C)(C)C)NC(=O)CCCCCCCCCCCCCCCC [SM(d18:1/17:0)] | 291.89 | 290.12 |  |
| O=C[C@H](O[C@@H]1O[C@H](CO)[C@@H](O)[C@H](O)[C@H]1O)[C@@H](O)[C@H](O)[C@H](O)CO [Sophorose] | 183.57 |  |  |
| CCNc1nc(NC(C)(C)C)nc(SC)n1 [Terbutryn] |  | 161.23 |  |
| CC/C=C\C[C@H](O)/C=C/[C@H]1OC(O)C[C@H](O)[C@@H]1C/C=C\CCCC(=O)O (stereo partly specified) [Thromboxane B3] | 197.33 |  |  |
| C/C=C(\C)C(=O)NCC(=O)O [Tiglyl Glycine] | 146.68 |  |  |
| O=C(O)[C@@H]1C[C@@H](O)CN1 [Trans-4-Hydroxy-L-proline] |  | 130.23 |  |
| O=C(O)/C=C(\CC(=O)O)C(=O)O [Trans-Aconitic Acid] | 149.13 | 153.02 |  |
| O=c1[nH]c(=O)c2[nH]c(=O)[nH]c2[nH]1 [Uric Acid] | 143.5 | 131 |  |
| OC1OC[C@@H](O[C@@H]2OC[C@@H](O)[C@H](O)[C@H]2O)[C@H](O)[C@H]1O (stereo partly specified) [Xylobiose] | 167.4 |  |  |
| C[N+](C)(C)CCOP(=O)([O-])OC[C@H](O)CO [sn-Glycero-3-phosphocholine] | 161.8 | 157.17 |  |
